Measurements reported in paper PMC5665643, “CHIP as a membrane-shuttling proteostasis sensor” (eLife, 2017).
“Also recorded” adds a separate entry of the source. One block for each molecule: values may come before it.

Legend:
recombinant CHIP = test: Chemical crosslinking of recombinant CHIP in vitro; type: biochemical, Human; conditions: sodium deoxycholate, Coomassie Blue-stained reducing SDS-PAGE
Protocol: (§1) Human recombinant full length CHIP and its truncated versions were purified from Escherichia coli BL21 cells using Glutathion Sepharose 4B (GE Healthcare). Sepharose-bound GST-CHIP was subjected to overnight treatment with PreScission protease and the released tag-free protein was collected. Size exclusion chromatography on a HiLoad Superdex 200 column (GE Healthcare) followed to ensure the purity and homogeneity of proteins. All CHIP variants were kept in HSP70 buffer (25 mM HEPES KOH pH 7.5, 150 mM KCl, 5 mM MgCl2, 5% glycerol, 1 mM DTT).
5 µM of recombinant CHIP were crosslinked with 0.025% glutaraldehyde for 10 min at 30°C unless indicated otherwise. Crosslinking reaction was quenched with 100 mM Tris HCl pH 7.5 for 10–15 min at RT. Where indicated, HSP70 peptide at 800 μM was pre-incubated at 30°C for 20 min before adding glutaraldehyde. Crosslinking on 20% PA-containing liposomes was performed after centrifugation on the resuspended pellet. For CHIP monomerization, fresh 10% sodium deoxycholate stock solution was used. Crosslinks were analyzed with SDS-PAGE and CBB staining.

CHIP [1] = conditions: steroid detergent deoxycholate, monomerization; ref Nikolay et al., 2004; cited from earlier work
Description: Since lipid binding can influence the activity of enzymes ([Fang et al., 2001]; [Leonard and Hurley, 2011]), we sought to assess the ubiquitylation function of CHIP upon interaction with membranes. […] First, CHIP remained dimeric and was still capable of oligomerization (Figure 4a).

CHIP [2] = test: Lipid-binding assay (membrane-immobilized lipids, lipid arrays); parameters: species or system Human; conditions: lipid strips/PIP strips, 0.5 µg/ml wild-type chaperone-free CHIP, 1 hr at RT, anti-C-CHIP antibody
Protocol: as §1
Membrane-immobilized lipids (Membrane lipid strips P-6002 and PIP strips P-6001) were purchased from Echelon Research Laboratories. The strips were incubated with blocking buffer (3% fatty acid free BSA, 0.1% (v/v) Tween-20 in PBS pH 7.5) for 1 hr at RT. 0.5 µg/ml of purified wild-type or mutant CHIP was added in blocking buffer and incubated for 1 hr at RT. Strips were washed and bound proteins were detected using anti-C-CHIP antibody. For competition experiments, ten times molar excess of C-terminal HSP70 was added to CHIP in blocking buffer.

CHIP [3] = test: Liposome floatation assay; type: binding, Human; conditions: 20% PA, 1 mM liposomes, 0.5 µM CHIP, 30 min at 37°C, pH 7.5
Protocol: as §1
(§2) Liposomes were prepared by mixing 1,2-dioleoyl-sn-glycero-3-phosphocholine (DOPC) with indicated amount (wt/wt) of either 1,2-dipalmitoyl-sn-glycero-3-phosphate (phosphatidic acid) or (wt/wt) 1,2-dipalmitoyl-sn-glycero-3-phosphoinositol-4-phosphate (PI4P) in a 1.5 ml reaction tube (Eppendorf). […] The liposome suspension was subjected to five freeze-thaw cycles in liquid nitrogen to promote unilamellar vesicle formation, aliquoted in 200 µl and pulse-sonicated for 8 s at 45% output with MS72 sonotrode (Bandelin) to create a population of homogenously sized liposomes as determined using NanoSight (Malvern Instruments). […]
1 mM liposomes and 0.5 µM CHIP were incubated in 150 µl reconstitution buffer for 30 min at 37°C. […] Resulting fractions were analyzed by SDS-PAGE and western blotting after loading dilution-corrected amount of respective fractions.

CHIP [4] = test: Liposome pelleting assay, effect of lipids and HSP70-C on CHIP association; type: binding, Human; conditions: 2 mM liposomes, 2 µM CHIP, 30 min at 37°C, N = 3
Protocol: as §1
Human C-terminal HSP70 6xHis-tagged N-terminally was purified from Escherichia coli BL21 cells using 1 ml HisTrap column (GE Healthcare). Bound protein was eluted by applying an imidazole gradient. Fractions containing the protein were subjected to size exclusion chromatography using HiLoad Superdex 200 in HSP70 buffer. His-NQO1, His-UbcH5a, His-Uev1a and His-Ubc13 were purified similarly except that PBS/1 mM DTT was used during size exclusion chromatography. Purity of recombinant protein was evaluated by SDS-PAGE and Coomassie BB G-250 (CBB) staining. Concentration of proteins was determined measuring absorbance at 280 nm and using ProtParam (ExPASy) to calculate respective extinction coefficients. Proteins were aliquoted, snap-frozen and stored at −80°C.
Liposomes were prepared by mixing 1,2-dioleoyl-sn-glycero-3-phosphocholine (DOPC) with indicated amount (wt/wt) of either 1,2-dipalmitoyl-sn-glycero-3-phosphate (phosphatidic acid) or (wt/wt) 1,2-dipalmitoyl-sn-glycero-3-phosphoinositol-4-phosphate (PI4P) in a 1.5 ml reaction tube (Eppendorf). Lipid mixtures were dried under a nitrogen stream and kept for 1 hr under vacuum. Liposomes were rehydrated in 1 ml filtered reconstitution buffer (25 mM HEPES KOH pH 7.5, 50 mM NaCl) to a concentration of 10 mM lipids. Liposomes were reconstituted by shaking at 2000 rpm for 1 hr at 50°C, followed by sonication for 1 hr at 50°C in a water bath. The liposome suspension was subjected to five freeze-thaw cycles in liquid nitrogen to promote unilamellar vesicle formation, aliquoted in 200 µl and pulse-sonicated for 8 s at 45% output with MS72 sonotrode (Bandelin) to create a population of homogenously sized liposomes as determined using NanoSight (Malvern Instruments). Sonicated liposomes were pooled, aliquoted again, snap-frozen and stored at −80°C.
2 mM liposomes were mixed with 2 µM recombinant protein in 50 µl reconstitution buffer. The suspension was incubated shaking at 450 rpm for 30 min at 37°C. Liposomes with bound protein were sedimented by ultracentrifugation at 100,000 g for 30 min at 25°C. Liposome pellet was washed with 50 µl of reconstitution buffer and sedimented again at 100,000 g for 30 min at 25°C. The pellet was resuspended in 10 µl reconstitution buffer, resolved by SDS-PAGE and analyzed by CBB staining. Images were acquired with ChemiDoc MP imaging system and quantified using Image Lab 5.0 software (both from Bio-Rad Laboratories). For competition assays, indicated amounts of C-terminal HSP70 were preincubated with 2 µM CHIP for 20 min at 37°C prior to co-sedimentation.

[5] = Liposome pelleting assay, binding of CHIP and truncated variants to liposomes; conditions: 20% PA- or 5% PI4P-containing DOPC liposomes, 2 mM liposomes, 2 µM CHIP, 37°C; up to
Description: (§3) For mammalian expression of EGFP, the expression vector pEGFP-N1 from Clontech (Mountain View, CA) was used. N-terminal EGFP-CHIP fusion protein was constructed by cloning human CHIP coding sequence in pEGFP-C2 vector (Clontech) using HindIII and BamHI restriction sites. A fusion between the N-terminalβ−1,4-galactosyltransferase1 and EGFP was used as a marker of the Golgi apparatus, farnesylated EGFP as a marker of plasma membrane (both constructs from Clontech). Untagged and 3xFLAG-tagged human CHIP for mammalian expression were constructed in pCMV-10 vector (Sigma-Aldrich). HSP70 was amplified from human cDNA and cloned into pcDNA3. 1 expression vector without a tag. HSP70 lacking the last amino acid (HSP70ΔD) was prepared by site-directed mutagenesis. Vectors of full-length CHIP, UbcH5a and mutant NQO1 for bacterial expression were prepared as described ([Martínez-Limón et al., 2016]). The TPR domain bacterial expression vector (TPR) was created by exchanging glutamate152 codon to a stop codon in the full-length CHIP vector. CHIP without TPR domain (ΔTPR) was cloned by deleting the sequence between serine25 and argininge130 by means of PCR. […]
as §2
2 mM liposomes were mixed with 2 µM recombinant protein in 50 µl reconstitution buffer. […] The pellet was resuspended in 10 µl reconstitution buffer, resolved by SDS-PAGE and analyzed by CBB staining. Images were acquired with ChemiDoc MP imaging system and quantified using Image Lab 5.0 software (both from Bio-Rad Laboratories). […]

[6] = tested on: NQO1 P187S mutant; ubiquitin; CHIP; test: In vitro ubiquitylation on liposomes; type: biochemical; conditions: 37°C 1 hr
Protocol: In vitro ubiquitylation was performed in 50 mM Tris HCl pH 7.5, 50 mM NaCl, 10 mM MgCl2, 2 mM DTT and 2 mM ATP. Reactions contained 100 nM UBE1 (Boston Biochem, Cambridge, MA), 2 µM either UbcH5a or Uev1A/Ubc13, 5 µM CHIP and […] ubiquitin from bovine erythrocytes (Sigma-Aldrich). 2.5 µM NQO1 P187S mutant was added as substrate where indicated. Reactions proceeded at 37°C for 1 hr and then were stopped by adding reducing SDS sample buffer and boiling samples at 95°C for 5 min. Protein modification was analyzed by SDS-PAGE and immunoblotting using antibodies against NQO1, CHIP and ubiquitin. Where indicated, CHIP pelleted with 20% PA-containing liposomes was used instead of soluble protein.

trypsin = test: Protease sensitivity assay (trypsin); type: physicochemical; conditions: 0.5 ng/µl trypsin, 37°C, 20% PA-containing liposomes; no significant difference; N = 3
Protocol: CHIP pelleted with 20% PA-containing liposomes was subjected to 0.5 ng/µl trypsin treatment at 37°C. Hydrolysis was stopped by adding hot reducing SDS sample buffer and boiling for 5 min. Samples were analyzed by SDS-PAGE and CBB staining. For controls without liposomes, protein was used at concentration assuming 30% binding to liposomes. Images were acquired with ChemiDoc MP imaging system and quantified using Image Lab 5.0 software (both from Bio-Rad Laboratories).

[7] = Lipid-binding assay, binding of CHIP variants to phospholipids; conditions: 0.5 µg/ml protein, 1 hr at RT
Description: as §3
Membrane-immobilized lipids (Membrane lipid strips P-6002 and PIP strips P-6001) were purchased from Echelon Research Laboratories. […] Strips were washed and bound proteins were detected using anti-C-CHIP antibody. […]

Molecule: C[C@H](CCC(=O)O)[C@H]1CC[C@H]2[C@@H]3CC[C@@H]4C[C@H](O)CC[C@]4(C)[C@H]3C[C@H](O)[C@]12C [deoxycholate, sodium deoxycholate]
- monomerization of CHIP (recombinant CHIP): monomerizes CHIP in vitro
- ubiquitin ligase activity of CHIP (CHIP [1]): reversibly inactivate its ubiquitin ligase activity

Molecule: CCCCCCCCCCCCCCCC(=O)OC[C@H](COP(=O)(O)O)OC(=O)CCCCCCCCCCCCCCC [PA, 1,2-dipalmitoyl-sn-glycero-3-phosphate]
- CHIP binding to phospholipid on lipid array (CHIP [2]): CHIP specificity mainly to phosphatidic acid (PA)
- CHIP cofloatation with DOPC liposomes (CHIP [3]): strongly enhanced
- CHIP association with DOPC-liposomes (pelleting), 5% PA (CHIP [4]; 5% PA, no significant difference): insufficient to strengthen binding of CHIP onto liposomes; also recorded: insufficient to enhance binding of CHIP to DOPC-liposomes
- CHIP association with DOPC-liposomes (pelleting), PA (CHIP [4]; PA-containing liposomes (Figure 2b)): pelleting was increased in the presence of PA; also recorded: strongly

- CHIP associated with liposomes, % of input [5]: 50–60%
Molecule: CHIP: human recombinant full length CHIP, ubiquitin ligase
- ubiquitylation of NQO1 and K63 chain formation while attached to liposomes ([6]; 5 µM CHIP or CHIP pelleted with 20% PA-containing liposomes, UbcH5a or Ubc13/Uev1a): remains capable to ubiquitylate the substrate protein NQO1 and form unattached K63-conjugated chains
- K63-based ubiquitin polymerization on liposomes versus soluble ([6]; Ubc13/Uev1a, 20% PA-containing liposomes): slightly weaker on liposomes
- auto-ubiquitylation on liposomes versus soluble ([6]; UbcH5a, 20% PA-containing liposomes): somewhat stronger on liposomes
- sensitivity to proteolysis on liposomes versus in solution (trypsin): does not change its sensitivity to proteolysis

B1: m2Δ: CHIP with KRKK to AAAA (221–224 aa) (protein, UniProt Q9UNE7 1-303, looked up, variant K221A R222A K223A K224A)
E3 ubiquitin-protein ligase …: MKGKEEKEGGARLGAGGGSPEKSPSAQELKEQGNRLFVGRKYPEAAACYGRAITRNPLVAVYYTNRALCYLKMQQHEQALADCRRALELDGQSVKAHFFLGQCQLEMESYDEAIANLQRAYSLAKEQRLNFGDDIPSALRIAKKKRWNSIEERRIHQESELHSYLSRLIAAERERELEECQRNHEGDEDDSHVRAQQACIEAKHDKYMADMDELFSQVDEAAAARDIPDYLCGKISFELMREPCITPSGITYDRKDIEEHLQRVGHFDPVTRSPLTQEQLIPNLAMKEVIDAFISENGWVEDY
- phospholipid binding of CHIP variant versus wild-type [7]: affects CHIP interaction with phospholipids in vitro
